PubChem BioAssay (NCI)
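Each compound was tested at five concentrations against cells in 96-well plates for 48 hours. TGI: total growth inhibition.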

system: HOP-62 NSCLC; experiment: inhibition of tumour cell growth, NCI panel, 48 h

| SMILES | TGI [µM] |
| --- | --- |
| CCOC(=O)Oc1ccc(C(CNC(C)C)OC(=O)OCC)cc1OC(=O)OCC (centres undefined) | > 100 |

system: HOP-92 NSCLC; experiment: inhibition of tumour cell growth, NCI panel, 48 h

| SMILES | TGI [µM] |
| --- | --- |
| C=C1C(=O)O[C@@H]2C[C@@H]3[C@]4(CC[C@]5(C)[C@@H]([C@H](C)CC/C=C(\C)C=O)CC[C@@]35C)C[C@]4(CCC(=O)OC)[C@H]12 | 3.88 |
| CSc1ccc(NC(=O)C2CCCCC2C(=O)O)cc1 (centres undefined) | > 100 |
| CCCCCOc1ccc(Nc2c(O)c3c(c(O)c2Cl)C(=O)C=CC3=O)cc1 | > 9.51 |
| CCOC(=O)Oc1ccc(C(CNC(C)C)OC(=O)OCC)cc1OC(=O)OCC (centres undefined) | > 100 |

system: HS 578T breast; experiment: inhibition of tumour cell growth, NCI panel, 48 h

| SMILES | TGI [µM] |
| --- | --- |
| C=C1C(=O)O[C@@H]2C[C@@H]3[C@]4(CC[C@]5(C)[C@@H]([C@H](C)CC/C=C(\C)C=O)CC[C@@]35C)C[C@]4(CCC(=O)OC)[C@H]12 | 6.77 |
| CSc1ccc(NC(=O)C2CCCCC2C(=O)O)cc1 (centres undefined) | > 100 |
| CCCCCOc1ccc(Nc2c(O)c3c(c(O)c2Cl)C(=O)C=CC3=O)cc1 | 7.39 |
| CCOC(=O)Oc1ccc(C(CNC(C)C)OC(=O)OCC)cc1OC(=O)OCC (centres undefined) | > 100 |

system: HT29 colon; experiment: inhibition of tumour cell growth, NCI panel, 48 h

| SMILES | TGI [µM] |
| --- | --- |
| C=C1C(=O)O[C@@H]2C[C@@H]3[C@]4(CC[C@]5(C)[C@@H]([C@H](C)CC/C=C(\C)C=O)CC[C@@]35C)C[C@]4(CCC(=O)OC)[C@H]12 | 11 |
| CSc1ccc(NC(=O)C2CCCCC2C(=O)O)cc1 (centres undefined) | > 100 |
| CCCCCOc1ccc(Nc2c(O)c3c(c(O)c2Cl)C(=O)C=CC3=O)cc1 | > 10 |
| CCOC(=O)Oc1ccc(C(CNC(C)C)OC(=O)OCC)cc1OC(=O)OCC (centres undefined) | > 100 |

system: IGROV1 ovarian; experiment: inhibition of tumour cell growth, NCI panel, 48 h

| SMILES | TGI [µM] |
| --- | --- |
| C=C1C(=O)O[C@@H]2C[C@@H]3[C@]4(CC[C@]5(C)[C@@H]([C@H](C)CC/C=C(\C)C=O)CC[C@@]35C)C[C@]4(CCC(=O)OC)[C@H]12 | 4.63 |
| CSc1ccc(NC(=O)C2CCCCC2C(=O)O)cc1 (centres undefined) | > 100 |
| CCCCCOc1ccc(Nc2c(O)c3c(c(O)c2Cl)C(=O)C=CC3=O)cc1 | > 10 |
| CCOC(=O)Oc1ccc(C(CNC(C)C)OC(=O)OCC)cc1OC(=O)OCC (centres undefined) | > 100 |

system: K-562 leukemia; experiment: inhibition of tumour cell growth, NCI panel, 48 h

| SMILES | TGI [µM] |
| --- | --- |
| C=C1C(=O)O[C@@H]2C[C@@H]3[C@]4(CC[C@]5(C)[C@@H]([C@H](C)CC/C=C(\C)C=O)CC[C@@]35C)C[C@]4(CCC(=O)OC)[C@H]12 | 2.67 |
| CSc1ccc(NC(=O)C2CCCCC2C(=O)O)cc1 (centres undefined) | > 100 |
| CCCCCOc1ccc(Nc2c(O)c3c(c(O)c2Cl)C(=O)C=CC3=O)cc1 | > 9.65 |
| CCOC(=O)Oc1ccc(C(CNC(C)C)OC(=O)OCC)cc1OC(=O)OCC (centres undefined) | > 100 |

system: KM12 colon; experiment: inhibition of tumour cell growth, NCI panel, 48 h

| SMILES | TGI [µM] |
| --- | --- |
| C=C1C(=O)O[C@@H]2C[C@@H]3[C@]4(CC[C@]5(C)[C@@H]([C@H](C)CC/C=C(\C)C=O)CC[C@@]35C)C[C@]4(CCC(=O)OC)[C@H]12 | 3.89 |
| CSc1ccc(NC(=O)C2CCCCC2C(=O)O)cc1 (centres undefined) | > 100 |
| CCCCCOc1ccc(Nc2c(O)c3c(c(O)c2Cl)C(=O)C=CC3=O)cc1 | > 10 |
| CCOC(=O)Oc1ccc(C(CNC(C)C)OC(=O)OCC)cc1OC(=O)OCC (centres undefined) | > 100 |

system: LOX IMVI melanoma; experiment: inhibition of tumour cell growth, NCI panel, 48 h

| SMILES | TGI [µM] |
| --- | --- |
| C=C1C(=O)O[C@@H]2C[C@@H]3[C@]4(CC[C@]5(C)[C@@H]([C@H](C)CC/C=C(\C)C=O)CC[C@@]35C)C[C@]4(CCC(=O)OC)[C@H]12 | 2.61 |
| CSc1ccc(NC(=O)C2CCCCC2C(=O)O)cc1 (centres undefined) | > 100 |
| CCCCCOc1ccc(Nc2c(O)c3c(c(O)c2Cl)C(=O)C=CC3=O)cc1 | 3.72 |
| CCOC(=O)Oc1ccc(C(CNC(C)C)OC(=O)OCC)cc1OC(=O)OCC (centres undefined) | > 100 |

system: M14 melanoma; experiment: inhibition of tumour cell growth, NCI panel, 48 h

| SMILES | TGI [µM] |
| --- | --- |
| C=C1C(=O)O[C@@H]2C[C@@H]3[C@]4(CC[C@]5(C)[C@@H]([C@H](C)CC/C=C(\C)C=O)CC[C@@]35C)C[C@]4(CCC(=O)OC)[C@H]12 | 2.91 |
| CSc1ccc(NC(=O)C2CCCCC2C(=O)O)cc1 (centres undefined) | > 100 |
| CCCCCOc1ccc(Nc2c(O)c3c(c(O)c2Cl)C(=O)C=CC3=O)cc1 | > 10 |
| CCOC(=O)Oc1ccc(C(CNC(C)C)OC(=O)OCC)cc1OC(=O)OCC (centres undefined) | > 100 |

system: MALME-3M melanoma; experiment: inhibition of tumour cell growth, NCI panel, 48 h

| SMILES | TGI [µM] |
| --- | --- |
| C=C1C(=O)O[C@@H]2C[C@@H]3[C@]4(CC[C@]5(C)[C@@H]([C@H](C)CC/C=C(\C)C=O)CC[C@@]35C)C[C@]4(CCC(=O)OC)[C@H]12 | 3.05 |
| CSc1ccc(NC(=O)C2CCCCC2C(=O)O)cc1 (centres undefined) | > 100 |
| CCCCCOc1ccc(Nc2c(O)c3c(c(O)c2Cl)C(=O)C=CC3=O)cc1 | > 6.38 |
| CCOC(=O)Oc1ccc(C(CNC(C)C)OC(=O)OCC)cc1OC(=O)OCC (centres undefined) | > 100 |

system: MCF7 breast; experiment: inhibition of tumour cell growth, NCI panel, 48 h

| SMILES | TGI [µM] |
| --- | --- |
| C=C1C(=O)O[C@@H]2C[C@@H]3[C@]4(CC[C@]5(C)[C@@H]([C@H](C)CC/C=C(\C)C=O)CC[C@@]35C)C[C@]4(CCC(=O)OC)[C@H]12 | 2.9 |
| CSc1ccc(NC(=O)C2CCCCC2C(=O)O)cc1 (centres undefined) | > 100 |
| CCCCCOc1ccc(Nc2c(O)c3c(c(O)c2Cl)C(=O)C=CC3=O)cc1 | > 10 |
| CCOC(=O)Oc1ccc(C(CNC(C)C)OC(=O)OCC)cc1OC(=O)OCC (centres undefined) | > 100 |

system: MDA-MB-231 breast; experiment: inhibition of tumour cell growth, NCI panel, 48 h

| SMILES | TGI [µM] |
| --- | --- |
| C=C1C(=O)O[C@@H]2C[C@@H]3[C@]4(CC[C@]5(C)[C@@H]([C@H](C)CC/C=C(\C)C=O)CC[C@@]35C)C[C@]4(CCC(=O)OC)[C@H]12 | 3.66 |
| CSc1ccc(NC(=O)C2CCCCC2C(=O)O)cc1 (centres undefined) | > 100 |
| CCCCCOc1ccc(Nc2c(O)c3c(c(O)c2Cl)C(=O)C=CC3=O)cc1 | > 8.25 |
| CCOC(=O)Oc1ccc(C(CNC(C)C)OC(=O)OCC)cc1OC(=O)OCC (centres undefined) | > 100 |

system: MDA-MB-435; experiment: inhibition of tumour cell growth, NCI panel, 48 h

| SMILES | TGI [µM] |
| --- | --- |
| C=C1C(=O)O[C@@H]2C[C@@H]3[C@]4(CC[C@]5(C)[C@@H]([C@H](C)CC/C=C(\C)C=O)CC[C@@]35C)C[C@]4(CCC(=O)OC)[C@H]12 | 3.16 |
| CSc1ccc(NC(=O)C2CCCCC2C(=O)O)cc1 (centres undefined) | > 100 |
| CCCCCOc1ccc(Nc2c(O)c3c(c(O)c2Cl)C(=O)C=CC3=O)cc1 | 5.53 |
| CCOC(=O)Oc1ccc(C(CNC(C)C)OC(=O)OCC)cc1OC(=O)OCC (centres undefined) | > 100 |

system: MDA-N; experiment: inhibition of tumour cell growth, NCI panel, 48 h

| SMILES | TGI [µM] |
| --- | --- |
| C=C1C(=O)O[C@@H]2C[C@@H]3[C@]4(CC[C@]5(C)[C@@H]([C@H](C)CC/C=C(\C)C=O)CC[C@@]35C)C[C@]4(CCC(=O)OC)[C@H]12 | 3.42 |
| CSc1ccc(NC(=O)C2CCCCC2C(=O)O)cc1 (centres undefined) | > 100 |
| CCCCCOc1ccc(Nc2c(O)c3c(c(O)c2Cl)C(=O)C=CC3=O)cc1 | > 9.3 |
| CCOC(=O)Oc1ccc(C(CNC(C)C)OC(=O)OCC)cc1OC(=O)OCC (centres undefined) | > 100 |

system: MOLT-4 leukemia; experiment: inhibition of tumour cell growth, NCI panel, 48 h

| SMILES | TGI [µM] |
| --- | --- |
| C=C1C(=O)O[C@@H]2C[C@@H]3[C@]4(CC[C@]5(C)[C@@H]([C@H](C)CC/C=C(\C)C=O)CC[C@@]35C)C[C@]4(CCC(=O)OC)[C@H]12 | 2.94 |
| CSc1ccc(NC(=O)C2CCCCC2C(=O)O)cc1 (centres undefined) | > 100 |
| CCCCCOc1ccc(Nc2c(O)c3c(c(O)c2Cl)C(=O)C=CC3=O)cc1 | > 10 |
| CCOC(=O)Oc1ccc(C(CNC(C)C)OC(=O)OCC)cc1OC(=O)OCC (centres undefined) | > 100 |

system: NCI-H226 lung; experiment: inhibition of tumour cell growth, NCI panel, 48 h

| SMILES | TGI [µM] |
| --- | --- |
| C=C1C(=O)O[C@@H]2C[C@@H]3[C@]4(CC[C@]5(C)[C@@H]([C@H](C)CC/C=C(\C)C=O)CC[C@@]35C)C[C@]4(CCC(=O)OC)[C@H]12 | 10.8 |
| CSc1ccc(NC(=O)C2CCCCC2C(=O)O)cc1 (centres undefined) | > 100 |
